According to ChEMBL document CHEMBL4304800, “C4-Phenylthio β-lactams: Effect of the chirality of the β-lactam ring on antimicrobial activity” (2019):
Converted amounts (≈) assume the structure as drawn. The source made the active and inactive calls. No cut-off for these calls is given here.

Tests used:
Moraxella catarrhalis = assay: Bactericidal activity against serine beta-lactamase producing Moraxella catarrhalis incubated in MH broth for 24 to 48 hrs by microbroth dilution method; format: functional
[1] = system: Mycobacterium tuberculosis; assay: Antitubercular activity against serine beta-lactamase producing Mycobacterium tuberculosis H37Rv after 14 days in presence of middlebrook 7H9/BSA medium by eleven fold serial dilution method; format: functional; settings: 336 h
[2] = system: Mycobacterium tuberculosis; assay: Antitubercular activity against clinical drug sensitive Mycobacterium tuberculosis K14b00DS after 14 days in presence of middlebrook 7H9/BSA medium by eleven fold serial dilution method; format: functional; settings: 336 h
[3] = system: Mycobacterium tuberculosis; assay: Antitubercular activity against serine beta-lactamase producing Mycobacterium tuberculosis H37Rv after 14 days in presence of GAST/Fe medium by eleven fold serial dilution method; format: functional; settings: 336 h
[4] = system: Mycobacterium tuberculosis; assay: Bactericidal activity against non-replicating persistant form of Mycobacterium tuberculosis H37Rv assessed as minimum anaerobicidal concentration by measuring log reduction in viable microbe number at 200 ug/ml preincubated for 7 days in anaerobic condition post adaptation to decreasing oxygen levels and further incubated in middlebrook 7H11/BSA supplemented with ODAC for 4 to 5 weeks by serial dilution based assay; format: functional
[5] = system: Mycobacterium tuberculosis; assay: (§1) Bactericidal activity against serine beta-lactamase producing Mycobacterium tuberculosis H37Rv assessed as reduction in microbial cell number at MIC preincubated in middlebrook 7H9 medium for 7 days and further incubated in middlebrook 7H11/BSA supplemented with OADC for 3 weeks by serial dilution based colony counting method; format: functional, organism-based
[6] = system: Mycobacterium tuberculosis; assay: as §1, with “induction of” for “reduction in”, “kill” for “cell number”; format: functional
[7] = system: Mycobacterium tuberculosis; assay: Antitubercular activity against serine beta-lactamase producing Mycobacterium tuberculosis H37Rv after 14 days in presence of Glu/BSA medium by eleven fold serial dilution method; format: functional; settings: 336 h
[8] = system: Mycobacterium tuberculosis; assay: Antitubercular activity against serine beta-lactamase producing Mycobacterium tuberculosis H37Rv after 14 days in presence of Glu/Cas medium by eleven fold serial dilution method; format: functional; settings: 336 h
[9] = system: Mycobacterium tuberculosis; assay: Antitubercular activity against serine beta-lactamase producing Mycobacterium tuberculosis H37Rv after 14 days in presence of Chol/BSA medium by eleven fold serial dilution method; format: functional; settings: 336 h
[10] = system: Mycobacterium tuberculosis; assay: Antitubercular activity against serine beta-lactamase producing Mycobacterium tuberculosis H37Rv after 14 days in presence of DPCC/Cas medium by eleven fold serial dilution method; format: functional; settings: 336 h
[11] = system: Mycobacterium tuberculosis; assay: Antitubercular activity against serine beta-lactamase producing Mycobacterium tuberculosis H37Rv after 14 days in presence of DPPC/BSA medium by eleven fold serial dilution method; format: functional; settings: 336 h

| Structure (SMILES) | MBC (Moraxella catarrhalis) [µg/mL] | MIC (Moraxella catarrhalis) [µg/mL] | MIC99 [1] [µg/mL] | MIC [2] [µg/mL] | MIC99 [3] [µg/mL] | Activity [4] [log10CFU/ml] | Activity [5] | LCK [6] | MIC [7] [µg/mL] | MIC [8] [µg/mL] | MIC [9] [µg/mL] | MIC [10] [µg/mL] | MIC [11] [µg/mL] |
| --- | --- | --- | --- | --- | --- | --- | --- | --- | --- | --- | --- | --- | --- |
| C[C@@H](NC(=O)N1C(=O)C[C@@H]1Sc1ccc(F)cc1F)c1ccccc1 | 50 (≈ 138 µM) | 50 (≈ 138 µM) | 25 | 25 | 0.7 |  |  |  |  |  |  |  |  |
| C[C@@H](NC(=O)N1C(=O)C[C@H]1Sc1c(F)c(F)c(F)c(F)c1F)c1ccccc1 | 3.1 (≈ 7.45 µM) | 3.1 (≈ 7.45 µM) | > 100 |  | 0.3 | 1 | Active | <3 |  |  |  |  |  |
| C[C@H](NC(=O)N1C(=O)C[C@@H]1Sc1ccc(C(F)(F)F)cc1)c1ccccc1 | 200 (≈ 507 µM) | 200 (≈ 507 µM) | 25 | 25 |  |  |  |  |  |  |  |  |  |
| COc1ccccc1S[C@H]1CC(=O)N1C(=O)N[C@H](C)c1ccccc1 | 50 (≈ 140 µM) | 50 (≈ 140 µM) | 50 |  | 25 |  |  |  |  |  |  |  |  |
| COc1ccccc1S[C@@H]1CC(=O)N1C(=O)N[C@H](C)c1ccccc1 |  | > 200 | > 100 |  | 25 |  |  |  |  |  |  |  |  |
| COc1ccc(S[C@H]2CC(=O)N2C(=O)N[C@@H](C)c2ccccc2)cc1 | 50 (≈ 140 µM) | 50 (≈ 140 µM) | > 50 |  | 25 |  |  |  |  |  |  |  |  |
| O=C1CC(Sc2cccc(C(F)(F)F)c2)N1 (racemic) | 1.5 (≈ 6.07 µM) | 1.5 (≈ 6.07 µM) | 25 |  |  |  |  |  | 25 | 12.5 | 12.5 | 0.78 | 12.5 |
| C[C@@H](NC(=O)N1C(=O)C[C@@H]1Sc1c(F)c(F)c(F)c(F)c1F)c1ccccc1 | 12.5 (≈ 30 µM) | 12.5 (≈ 30 µM) | > 100 |  |  | 1 | Active | <3 |  |  |  |  |  |
| C[C@@H](NC(=O)N1C(=O)C[C@H]1Sc1ccc(F)cc1F)c1ccccc1 | 12.5 (≈ 34.5 µM) | 12.5 (≈ 34.5 µM) | 50 | 25 | 0.3 |  |  |  |  |  |  |  |  |
| COc1ccccc1S[C@@H]1CC(=O)N1C(=O)N[C@@H](C)c1ccccc1 | 100 (≈ 281 µM) | 100 (≈ 281 µM) | 100 |  | 25 |  |  |  |  |  |  |  |  |
| COc1ccc(S[C@@H]2CC(=O)N2C(=O)N[C@H](C)c2ccccc2)cc1 | 50 (≈ 140 µM) | 50 (≈ 140 µM) | 100 |  | 25 |  |  |  |  |  |  |  |  |
| O=C1CC(Sc2ccc(C(F)(F)F)cc2)N1C(=O)NCc1ccccc1 (racemic) |  | 1.6 (≈ 4.21 µM) | 12.5 | 25 |  |  |  |  | 25 | 1.5 | 25 | 0.78 | 25 |
| C[C@@H](NC(=O)N1C(=O)C[C@H]1Sc1ccc(F)cc1Cl)c1ccccc1 | 25 (≈ 66 µM) | 25 (≈ 66 µM) | 50 |  | 1.5 |  |  |  |  |  |  |  |  |
| O=C1CC(Sc2ccc(F)cc2Cl)N1C(=O)NCc1ccccc1 (racemic) | 12.5 (≈ 34.3 µM) |  | 37.5 |  | 0.3 |  |  |  | 25 | 1.5 | 18.8 | 0.78 | 12.5 |
| C[C@H](NC(=O)N1C(=O)C[C@H]1Sc1ccc(F)cc1Cl)c1ccccc1 | 200 (≈ 528 µM) | 200 (≈ 528 µM) | 37.5 |  | 1.5 |  |  |  |  |  |  |  |  |
| C[C@@H](NC(=O)N1C(=O)C[C@@H]1Sc1ccc(F)c(F)c1)c1ccccc1 | 25 (≈ 69 µM) | 25 (≈ 69 µM) | > 100 |  | 0.7 |  |  |  |  |  |  |  |  |
| C[C@H](NC(=O)N1C(=O)C[C@@H]1Sc1ccc(F)cc1Cl)c1ccccc1 | 50 (≈ 132 µM) | 50 (≈ 132 µM) | 25 |  | 1.5 |  |  |  |  |  |  |  |  |
| C[C@@H](NC(=O)N1C(=O)C[C@@H]1Sc1ccccc1F)c1ccccc1 | 50 (≈ 145 µM) | 25 (≈ 72.6 µM) | 25 |  | 12.5 |  |  |  |  |  |  |  |  |
